Data on six compounds can be found in patent US20210205341A1, “COMPOSITIONS COMPRISING HUMAN MILK OLIGOSACCHARIDES FOR USE IN INFANTS OR YOUNG CHILDREN TO PREVENT OR TREAT A HEALTH DISORDER BY INCREASING GLP-1 SECRETION” (NESTEC S.A., priority 2016, published 2021).

The subject of one test is GLP-1 secretion. Briefly: GLP-1 plasma concentration in IUGR rats fed HMO-supplemented regimen. Type of test: in vivo, rat. An excerpt: A wide group of pregnant female rats were bought from Charles River laboratories. They were submitted to food restriction of 60% during the last 10 days of gestation.
Immediately after birth (d=1), the born rat pups—subjects of the experiment—were split into several groups: • IUGR rats (control) (n=20) • IUGR rats+HMO (test groups): During the experiment, they were reared by their mothers for 21 days and supplemented with HMOs (2FL or LNnT). At weaning, they were fed a diet supplemented with the same HMOs, see details below. There were 2 different groups: • IUGR rats+2FL (n=10) • IUGR rats+LNnT (n=10)
IUGR (intrauterine growth restricted) rats were chosen as control model since they have a higher appetite to compensate their growth retardation, and therefore they may not eat in a healthy way with standard diets (e.g. they may have a higher total weight and/or adipose mass increase over their lean mass increase) which may lead to the development and programming for future health conditions including later in life obesity or future related comorbidities like diabetes.
All rat pups were fed from birth (d=1) up to 57 days (d=57) based on the following protocol: • day 1-day 6: all groups of rats were nursed by dam (mothers' milk only) • day 7-day 21: all rats were nursed by dam (mothers' milk only). But in the test groups, 3 g/kg body weight of a HMO were also administered by gavage: 2FL: 3 g/kg body weight, for the group IUGR rats+2FL LNnT: 3 g/kg body weight, for the group IUGR rats+LNnT • day 22-day 57: rats were separated from their mothers and they had the following regimen: • IUGR rats (control): fed with a control diet (composition detailed in table 2), no HMO supplementation
IUGR rats+HMO (test groups): fed with the same diet but supplemented with 4.5 wt % of a HMO (maltodextrin in the total control diet was replaced by the respective tested HMO):
4.5 wt % of 2FL for the group IUGR rats+2FL
4.5 wt % of LNnT for the group IUGR rats+LNnT
GLP-1 secretion in the rats was assessed by determination of its circulating concentration in plasma.

Another test has as its system NCI-H716 cells. Description: Calcium assay in NCI-H716 cells (fluorescent calcium sensitive dye). Type of test: cell-based, human. The conditions noted are these: for significance of increase in fluorescence ratio: 5 mg/mL, 10 mg/mL and 20 mg/mL, p<0.05 vs negative control, two-sided t-test; for concentration dependence of calcium response: 1-20 mg/mL; for fluorescence ratio (intracellular calcium response): all tested concentrations: 1, 5, 10 and 20 mg/mL, vs buffer negative control. An excerpt:
NCI-H716 is a cell line derived from human L-cells, the enteroendocrine cells that secrete GLP-1, and it is often used as a model of GLP-1 secretion. Unstimulated NCI-H716 cells secrete a basal level of GLP-1 and activation of the cells leads to dose-dependent increase in GLP-1 secretion. Activation of the NCI-H716 cells and subsequent release of GLP-1 can be triggered by nutrients such as palmitic acid, oleic acid, and meat hydrolysate, Gastrin Releasing Peptide (GRP), the cholinergic molecule Carbachol, bitter compounds such as denatonium, ginsenosides and other molecules.
Activation of NCI-H716 cells by ionomycin, GRP, denatonium, or ginsenosides leads to increased intracellular calcium. Elevation of intracellular calcium is therefore a marker of cell activation and in NCI-H716 cells it could be considered as an indicator of GLP-1 release.
A calcium assay was used to determine if NCI-H716 cells respond to human milk oligosaccharides (sialylated oligosaccharides 3SL and 6SL) or components/precursors thereof (lactose and sialic acid). In this assay, cultured NCI-H716 cells were loaded with a fluorescent calcium sensitive dye then stimulated with the HMOs. The response to the stimulus was measured by change in fluorescence ratio in consequence of intracellular calcium increase. The tested HMOs were 3′-sialyllactose (3SL) and 6′-sialyllactose (6SL). They were tested individually.
GRP (Gastrin Releasing Peptide): positive control
Tested HMOs concentrations: 1 mg/mL, 5 mg/mL, 10 mg/mL and 20 mg/mL
Tested lactose and sialic acid concentrations: 5.5 mg/mL and 4.72 mg/mL respectively (correspond to the amounts contained in 10 mg/mL of 3SL, in order to make a suitable comparison with 10 mg/mL of 3SL)

Setting [1] is: d=57, 3 g/kg by gavage day 7-21, then diet with 4.5 wt % HMO day 22-57, FIG. 1A partial results.
[2] abbreviates: d=57, 3 g/kg by gavage day 7-21, then diet with 4.5 wt % HMO day 22-57, FIG. 1B final results.

For 2′-fucosyllactose [2FL], the figures for the “GLP-1 plasma concentration increase in comparison with the control group” value in the test with GLP-1 secretion (setting [1]) and in the test with GLP-1 secretion (setting [2]) were 200% and 164%, respectively.

For `CC(=O)N[C@H]1[C@H](O[C@H]2[C@@H](O)[C@@H](CO)O[C@@H](O[C@H]3[C@H](O)[C@@H](O)C(O)O[C@@H]3CO)[C@@H]2O)O[C@H](CO)[C@@H](O[C@@H]2O[C@H](CO)[C@H](O)[C@H](O)[C@H]2O)[C@@H]1O` (mixture of isomers) [LNnT, lacto-N-neotetraose], the results for the “GLP-1 plasma concentration increase in comparison with the control group” value in the test with GLP-1 secretion (setting [1]) and with GLP-1 secretion (setting [2]) were 43% and 13%, respectively.

With `CC(=O)N[C@H]1[C@H]([C@H](O)[C@H](O)CO)O[C@@](O[C@H]2[C@@H](O)[C@@H](CO)O[C@@H](O[C@H]3[C@H](O)[C@@H](O)C(O)O[C@@H]3CO)[C@@H]2O)(C(=O)O)C[C@@H]1O` (stereo partly drawn) [3SL, (6R)-5-Acetamido-3,5-dideoxy-6-[(1R,2R)-1,2,3-trihydroxypropyl]-β-L-threo-hex-2-ulopyranonosyl-(2->3)-β-D-galactopyranosyl-(1->4)-D-glucopyranose], in the test with NCI-H716 cells, the “significance of increase in fluorescence ratio” value is on record as “significant”, the “concentration dependence of calcium response” value is recorded as “clear concentration dependent calcium response” and the “fluorescence ratio (intracellular calcium response)” value is reported as “enhanced”.

On to `CC(=O)N[C@H]1[C@H]([C@H](O)[C@H](O)CO)O[C@@](OC[C@H]2O[C@@H](O[C@H]3[C@H](O)[C@@H](O)C(O)O[C@@H]3CO)[C@H](O)[C@@H](O)[C@H]2O)(C(=O)O)C[C@@H]1O` (stereo partly drawn) [6SL, (6R)-5-Acetamido-3,5-dideoxy-6-[(1R,2R)-1,2,3-trihydroxypropyl]-β-L-threo-hex-2-ulopyranonosyl-(2->6)-β-D-galactopyranosyl-(1->4)-D-glucopyranose], for which, in the test on NCI-H716 cells, the “significance of increase in fluorescence ratio” value is reported as “significant”, the “concentration dependence of calcium response” value is “clear concentration dependent calcium response” and the “fluorescence ratio (intracellular calcium response)” value was “enhanced”.

For `OC[C@H]1O[C@@H](O[C@H]2[C@H](O)[C@@H](O)C(O)O[C@@H]2CO)[C@H](O)[C@@H](O)[C@H]1O` (stereo partly drawn) [Lactose, reference compound], the “activation of NCI-H716 cells (calcium response)” value with NCI-H716 cells (5.5 mg/mL (amount contained in 10 mg/mL 3SL)) is on record as “did not activate the cells”.

As to `CC(=O)N[C@H]1[C@H]([C@H](O)[C@H](O)CO)OC(O)(C(=O)O)C[C@@H]1O` (stereo partly drawn) [sialic acid, N-acetylneuraminic acid, reference compound], the “activation of NCI-H716 cells (calcium response)” value in the test with NCI-H716 cells (4.72 mg/mL (amount contained in 10 mg/mL 3SL)) was “did not activate the cells”.
